In paper PMC6892409, “Phenotypic proteomic profiling identifies a landscape of targets for circadian clock–modulating compounds” (Life Science Alliance, 2019):
pIC50: −log10 of the molar value. Read-outs that look alike come from different tables or passages of the source.

How the values were obtained:
[1] = molecular target: SARS2 (Homo sapiens, UniProt Q9NP81); assay: TPP in intact U2OS cells; format: binding
[2] = system: Synechococcus elongatus; assay: Luminescence rhythm period assay in cyanobacteria; details: 3, 8, 16 and 32 μM
Protocol: The D730nm was maintained between 0.27 and 0.45 by dilution with fresh medium.
Circadian period–altering compounds (dissolved in DMSO, final 0.5% DMSO) were then added in the air medium to reach the different desired concentrations. […] Images were generated from integrated photon counts over 25 min every 30 min using Metamorph software (Molecular Devices). […] Exported images were composed into image stacks and were quantified in a time series using a custom script in NIH ImageJ software, applying the “Multi Measure” plugin.

[3] = molecular target: CYCS (Homo sapiens, UniProt P99999); assay: TPP in intact U2OS cells; format: binding; details: vs vehicle
[4] = molecular target: DYNC1I2 (Homo sapiens, UniProt Q13409); assay: TPP in intact U2OS cells; format: binding; details: vs vehicle
[5] = system: Per2-dLuc U2OS cells; assay: Circadian luminescence period assay, Per2-dLuc U2OS cells; format: cell-based, human; details: 7 μM, mean ± SEM, control 24.2 ± […]
Protocol: Per2-dLuc U2OS osteosarcoma and Bmal1-dLuc U2OS osteosarcoma reporter cell lines were gifts from Dr Andrew Liu, University of Memphis, USA ([Liu et al, 2008]). […] The cells were cultured at 37°C, 5% CO2 in a standard humidified incubator.

[6] = molecular target: RPL37 (Homo sapiens, UniProt P61927); assay: TPP in intact U2OS cells; format: binding; details: vs vehicle
[7] = molecular target: T1, TNIK (Homo sapiens, UniProt Q9UKE5); assay: Radiometric HotSpot kinase assay; format: biochemical
T1 construct: purchased Reaction Biology
Protocol: (§1) In brief, specific kinase/substrate pairs were mixed in a buffer containing 20 mM Hepes (pH 7.5), 10 mM MgCl2, 1 mM EGTA, 0.02% Brij35, 0.02 mg/ml BSA, 0.1 mM Na3VO4, 2 mM DTT, and 1% DMSO. […] After a 20-min incubation, ATP (cat. no. A7699; Sigma-Aldrich) and [γ-^33P] ATP (cat. no. NEG602H001MC; PerkinElmer) were added at a final total concentration of […].

[8] = molecular target: T2, ERK1/MAPK3 (Homo sapiens, UniProt P27361); assay: Radiometric HotSpot kinase assay; format: biochemical; details: 100 μM, n = 3; remaining activity vs DMSO; read-out: Enzyme activity (%) ERK1/MAPK3
T2 construct: purchased Reaction Biology
Protocol: as §1

[9] = molecular target: T3, CDK2 (Homo sapiens, UniProt P24941); assay: Radiometric HotSpot kinase assay; format: biochemical; details: n = 3, remaining activity vs DMSO, read-out: Enzyme activity (%) CDK2
T3 construct: purchased Reaction Biology
Protocol: as §1

[10] = molecular target: T4, CDK7 (Homo sapiens, UniProt P50613); assay: Radiometric HotSpot kinase assay; format: biochemical; details: 100 μM, n = 3; remaining activity vs DMSO; read-out: Enzyme activity (%) CDK7
T4 construct: purchased Reaction Biology
Protocol: as §1

[11] = molecular target: T5, ERK2/MAPK1 (Homo sapiens, UniProt P28482); assay: Radiometric HotSpot kinase assay; format: biochemical; details: 100 μM, n = 3; remaining activity vs DMSO; read-out: Enzyme activity (%) ERK2/MAPK1
T5 construct: purchased Reaction Biology
Protocol: as §1

[12] = molecular target: T6, CK2a (Homo sapiens, UniProt P68400); assay: Radiometric HotSpot kinase assay; format: biochemical; details: 100 μM, n = 3; remaining activity vs DMSO; read-out: Enzyme activity (%) CK2a
T6 construct: purchased Reaction Biology
Protocol: as §1

[13] = molecular target: T7, CK1d (Homo sapiens, UniProt P48730); assay: Radiometric HotSpot kinase assay; format: biochemical; details: n = 3, remaining activity vs DMSO, read-out: Enzyme activity (%) CK1d
T7 construct: purchased Reaction Biology
Protocol: as §1

[14] = molecular target: T8, CAMK2d (Homo sapiens, UniProt Q13557); assay: Radiometric HotSpot kinase assay; format: biochemical; details: 100 μM, n = 3; remaining activity vs DMSO; read-out: Enzyme activity (%) CAMK2d
T8 construct: purchased Reaction Biology
Protocol: as §1

[15] = molecular target: T9, MST4/STK26 (Homo sapiens, UniProt Q9P289); assay: Radiometric HotSpot kinase assay; format: biochemical; details: 100 μM, n = 3; remaining activity vs DMSO; read-out: Enzyme activity (%) MST4/STK26
T9 construct: purchased Reaction Biology
Protocol: as §1

[16] = molecular target: NFU1 (Homo sapiens, UniProt Q9UMS0); assay: TPP in intact U2OS cells; format: binding; details: vs vehicle
[17] = molecular target: Rab GTPase-binding effector protein 1 (RABEP1) (Homo sapiens, UniProt Q15276); assay: TPP in intact U2OS cells; details: vs vehicle
[18] = molecular target: PSMG4 (Homo sapiens, UniProt Q5JS54); assay: TPP in intact U2OS cells; format: binding; details: vs vehicle
[19] = molecular target: Cleavage stimulation factor subunit 2 tau variant (CSTF2T) (Homo sapiens, UniProt Q9H0L4); assay: TPP in intact U2OS cells; format: binding; details: vs vehicle
[20] = molecular target: TNS1 (Homo sapiens, UniProt Q9HBL0); assay: TPP in intact U2OS cells; format: binding; details: vs vehicle
[21] = molecular target: F-box protein 21 (FBX21) (Homo sapiens, UniProt O94952); assay: TPP in intact U2OS cells; format: binding; details: vs vehicle
F-box protein 21 (FBX21), sequence (O94952 whole entry): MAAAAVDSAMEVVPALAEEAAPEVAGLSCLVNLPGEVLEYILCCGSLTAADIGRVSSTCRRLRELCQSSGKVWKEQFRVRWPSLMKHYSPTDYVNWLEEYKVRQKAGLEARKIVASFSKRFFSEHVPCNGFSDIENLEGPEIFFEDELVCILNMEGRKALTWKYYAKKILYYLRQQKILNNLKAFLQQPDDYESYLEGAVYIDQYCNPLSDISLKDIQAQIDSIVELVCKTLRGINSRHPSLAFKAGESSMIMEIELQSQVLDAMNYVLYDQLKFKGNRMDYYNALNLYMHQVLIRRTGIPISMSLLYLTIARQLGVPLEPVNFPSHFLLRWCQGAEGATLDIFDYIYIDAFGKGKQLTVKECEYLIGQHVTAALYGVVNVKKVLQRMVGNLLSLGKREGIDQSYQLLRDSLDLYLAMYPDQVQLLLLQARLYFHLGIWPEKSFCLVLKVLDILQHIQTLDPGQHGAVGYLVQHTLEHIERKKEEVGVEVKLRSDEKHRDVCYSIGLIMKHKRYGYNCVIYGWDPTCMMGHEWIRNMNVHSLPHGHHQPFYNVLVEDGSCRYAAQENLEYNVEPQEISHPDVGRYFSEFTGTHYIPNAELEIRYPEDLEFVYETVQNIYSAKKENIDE

TNS1, sequence (Q9HBL0 whole entry): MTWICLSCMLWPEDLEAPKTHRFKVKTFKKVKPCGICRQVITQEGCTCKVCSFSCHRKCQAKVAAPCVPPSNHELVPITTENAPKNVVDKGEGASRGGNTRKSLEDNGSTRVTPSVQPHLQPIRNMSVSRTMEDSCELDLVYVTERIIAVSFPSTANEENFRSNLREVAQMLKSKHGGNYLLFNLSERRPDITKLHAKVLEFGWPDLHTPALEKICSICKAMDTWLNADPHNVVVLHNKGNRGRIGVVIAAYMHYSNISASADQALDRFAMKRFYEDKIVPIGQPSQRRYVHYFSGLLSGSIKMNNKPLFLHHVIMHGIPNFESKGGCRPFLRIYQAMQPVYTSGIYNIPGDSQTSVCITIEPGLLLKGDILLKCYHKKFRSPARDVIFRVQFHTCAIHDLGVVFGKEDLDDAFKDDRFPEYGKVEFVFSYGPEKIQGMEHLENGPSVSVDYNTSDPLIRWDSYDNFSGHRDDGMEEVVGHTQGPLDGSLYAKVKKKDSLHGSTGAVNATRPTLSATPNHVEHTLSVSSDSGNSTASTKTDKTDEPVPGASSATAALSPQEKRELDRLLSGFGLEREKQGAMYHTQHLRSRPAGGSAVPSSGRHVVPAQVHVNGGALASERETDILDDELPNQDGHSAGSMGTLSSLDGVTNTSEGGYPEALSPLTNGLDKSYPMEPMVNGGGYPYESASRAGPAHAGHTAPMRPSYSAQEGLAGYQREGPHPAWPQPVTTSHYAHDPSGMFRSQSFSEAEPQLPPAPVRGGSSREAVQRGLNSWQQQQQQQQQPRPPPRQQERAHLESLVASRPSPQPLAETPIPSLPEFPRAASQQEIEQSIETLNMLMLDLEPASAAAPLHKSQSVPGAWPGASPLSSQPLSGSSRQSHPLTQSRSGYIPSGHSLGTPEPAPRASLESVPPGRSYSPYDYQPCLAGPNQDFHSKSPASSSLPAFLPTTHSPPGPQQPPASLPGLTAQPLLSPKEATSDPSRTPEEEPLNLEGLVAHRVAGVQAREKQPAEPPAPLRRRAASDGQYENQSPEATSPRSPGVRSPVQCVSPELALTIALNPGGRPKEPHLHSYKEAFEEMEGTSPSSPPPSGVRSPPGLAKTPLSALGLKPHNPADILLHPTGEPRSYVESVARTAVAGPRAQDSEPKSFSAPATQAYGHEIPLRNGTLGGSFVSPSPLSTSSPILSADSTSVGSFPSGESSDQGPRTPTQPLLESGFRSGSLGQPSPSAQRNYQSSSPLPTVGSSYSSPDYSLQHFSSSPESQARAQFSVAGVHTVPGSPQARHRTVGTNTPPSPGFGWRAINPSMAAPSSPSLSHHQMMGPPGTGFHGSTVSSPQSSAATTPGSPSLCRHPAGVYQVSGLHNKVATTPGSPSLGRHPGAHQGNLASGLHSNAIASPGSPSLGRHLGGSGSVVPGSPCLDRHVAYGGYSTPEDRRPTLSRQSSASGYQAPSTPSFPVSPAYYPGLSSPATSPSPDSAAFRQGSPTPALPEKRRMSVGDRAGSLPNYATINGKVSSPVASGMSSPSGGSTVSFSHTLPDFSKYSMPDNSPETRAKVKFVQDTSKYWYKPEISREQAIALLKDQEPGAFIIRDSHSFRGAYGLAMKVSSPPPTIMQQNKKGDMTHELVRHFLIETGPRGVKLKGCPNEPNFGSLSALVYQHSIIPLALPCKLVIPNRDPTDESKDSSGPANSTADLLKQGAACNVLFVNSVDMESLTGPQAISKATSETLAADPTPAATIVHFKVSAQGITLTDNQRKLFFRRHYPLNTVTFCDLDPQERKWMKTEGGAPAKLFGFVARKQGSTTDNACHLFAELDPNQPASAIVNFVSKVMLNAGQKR
T1 sequence (Q9UKE5 whole entry): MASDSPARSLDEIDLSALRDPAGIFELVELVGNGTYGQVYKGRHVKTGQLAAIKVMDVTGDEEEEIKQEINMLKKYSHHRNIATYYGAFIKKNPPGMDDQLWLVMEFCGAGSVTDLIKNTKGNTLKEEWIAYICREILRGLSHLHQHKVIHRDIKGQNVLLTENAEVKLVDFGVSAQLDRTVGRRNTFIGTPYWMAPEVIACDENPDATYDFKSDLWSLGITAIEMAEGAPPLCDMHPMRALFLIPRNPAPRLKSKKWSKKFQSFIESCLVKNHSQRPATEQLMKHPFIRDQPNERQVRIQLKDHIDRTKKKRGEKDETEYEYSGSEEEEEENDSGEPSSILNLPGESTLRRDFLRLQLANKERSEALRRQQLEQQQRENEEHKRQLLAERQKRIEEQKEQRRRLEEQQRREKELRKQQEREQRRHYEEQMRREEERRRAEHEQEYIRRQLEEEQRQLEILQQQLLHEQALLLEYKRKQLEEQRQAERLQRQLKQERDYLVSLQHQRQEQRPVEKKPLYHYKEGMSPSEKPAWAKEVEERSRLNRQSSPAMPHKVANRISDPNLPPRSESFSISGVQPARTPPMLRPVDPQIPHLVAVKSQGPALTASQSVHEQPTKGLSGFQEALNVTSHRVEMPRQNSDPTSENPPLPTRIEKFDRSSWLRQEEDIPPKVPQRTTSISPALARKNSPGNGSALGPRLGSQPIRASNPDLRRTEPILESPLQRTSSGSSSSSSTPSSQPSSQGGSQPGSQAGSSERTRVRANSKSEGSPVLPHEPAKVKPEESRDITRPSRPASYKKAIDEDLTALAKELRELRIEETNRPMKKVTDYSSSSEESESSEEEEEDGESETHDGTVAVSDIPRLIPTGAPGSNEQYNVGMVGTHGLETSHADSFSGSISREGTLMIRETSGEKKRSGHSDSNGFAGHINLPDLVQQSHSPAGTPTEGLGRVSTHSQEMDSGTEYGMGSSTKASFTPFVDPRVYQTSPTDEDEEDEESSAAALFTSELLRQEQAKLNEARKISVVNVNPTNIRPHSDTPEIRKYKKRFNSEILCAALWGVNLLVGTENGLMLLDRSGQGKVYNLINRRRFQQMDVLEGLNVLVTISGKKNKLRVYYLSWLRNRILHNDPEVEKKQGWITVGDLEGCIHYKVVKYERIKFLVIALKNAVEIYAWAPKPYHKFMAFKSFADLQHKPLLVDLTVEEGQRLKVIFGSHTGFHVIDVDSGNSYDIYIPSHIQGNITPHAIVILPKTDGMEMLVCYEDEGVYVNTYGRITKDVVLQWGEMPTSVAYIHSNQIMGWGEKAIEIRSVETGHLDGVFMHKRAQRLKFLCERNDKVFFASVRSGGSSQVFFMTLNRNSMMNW
PSMG4, sequence (Q5JS54 whole entry): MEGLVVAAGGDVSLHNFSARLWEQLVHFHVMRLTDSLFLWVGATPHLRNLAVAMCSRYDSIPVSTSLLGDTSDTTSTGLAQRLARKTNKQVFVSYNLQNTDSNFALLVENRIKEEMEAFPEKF
NFU1, sequence (Q9UMS0 10-254): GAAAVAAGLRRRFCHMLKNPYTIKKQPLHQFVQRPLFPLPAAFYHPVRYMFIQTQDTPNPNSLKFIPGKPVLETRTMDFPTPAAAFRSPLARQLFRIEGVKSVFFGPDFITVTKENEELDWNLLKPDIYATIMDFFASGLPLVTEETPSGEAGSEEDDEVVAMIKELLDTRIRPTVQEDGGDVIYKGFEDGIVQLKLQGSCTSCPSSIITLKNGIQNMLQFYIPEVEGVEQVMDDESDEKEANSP
Rab GTPase-binding effector protein 1 (RABEP1), sequence (Q15276 whole entry): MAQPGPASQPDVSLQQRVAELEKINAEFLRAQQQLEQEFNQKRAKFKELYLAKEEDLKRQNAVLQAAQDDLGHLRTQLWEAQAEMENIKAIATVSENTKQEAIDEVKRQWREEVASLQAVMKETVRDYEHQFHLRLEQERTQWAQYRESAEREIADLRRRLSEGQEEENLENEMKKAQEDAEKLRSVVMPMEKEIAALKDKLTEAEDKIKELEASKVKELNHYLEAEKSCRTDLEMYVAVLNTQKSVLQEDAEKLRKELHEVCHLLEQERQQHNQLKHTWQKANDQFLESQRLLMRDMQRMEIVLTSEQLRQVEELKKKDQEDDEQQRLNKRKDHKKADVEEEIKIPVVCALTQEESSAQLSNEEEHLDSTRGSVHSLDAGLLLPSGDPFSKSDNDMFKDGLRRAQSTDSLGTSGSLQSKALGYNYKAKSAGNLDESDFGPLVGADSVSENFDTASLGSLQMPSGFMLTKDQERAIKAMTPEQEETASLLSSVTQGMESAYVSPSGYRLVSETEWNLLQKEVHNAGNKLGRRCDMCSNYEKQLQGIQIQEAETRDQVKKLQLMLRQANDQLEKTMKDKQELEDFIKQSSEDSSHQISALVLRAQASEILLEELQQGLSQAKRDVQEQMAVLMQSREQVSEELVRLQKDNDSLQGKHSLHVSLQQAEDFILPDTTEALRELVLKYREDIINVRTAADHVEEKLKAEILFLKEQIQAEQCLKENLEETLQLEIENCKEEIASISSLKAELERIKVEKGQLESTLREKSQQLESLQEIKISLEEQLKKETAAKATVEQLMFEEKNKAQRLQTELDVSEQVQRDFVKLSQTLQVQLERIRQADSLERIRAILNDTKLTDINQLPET

`Oc1c2ccccc2c2c3c(cccc13)N=N2` [SP600125] was tested, and the ΔTm at 10 µM ([1]; read-out: + Tm shift SARS2, Rep1) was 1.2 °C, the ΔTm at 10 µM ([1]; read-out: + Tm shift SARS2, Rep2) was 1.3 °C and the “Effect on period length in cyanobacteria” value [2] was “do not affect period length”. The ΔTm at 10 µM ([3]; Rep1, read-out: + Tm shift CYCS, Rep1) was 1 °C, the ΔTm at 10 µM ([3]; Rep2, read-out: + Tm shift CYCS, Rep2) was 1 °C and the ΔTm at 10 µM ([4]; Rep1, read-out: + Tm shift DYNC1I2, Rep1) was 2.5 °C. For the same compound, the ΔTm at 10 µM ([4]; Rep2, read-out: + Tm shift DYNC1I2, Rep2) was 0.8 °C, the Circadian period length [5] was 28.6 ± 0.1 h and the ΔTm at 10 µM ([6]; Rep1, read-out: + Tm shift RPL37, Rep1) was 2.9 °C. For the same compound, the ΔTm at 10 µM ([6]; Rep2, read-out: + Tm shift RPL37, Rep2) was 2.1 °C, the remaining activity at 100 µM ([7]; 100 μM, n = 3, remaining activity vs DMSO, read-out: Enzyme activity (%) TNIK) was 1.1% and the pIC50 ([7]; 10-dose, threefold serial dilution starting at 100 μM) was over 6.30. For the same compound, the remaining activity at 100 µM [8] was 76.7%, the remaining activity at 100 µM [9] was 5.3% and the remaining activity at 100 µM [10] was 13.2%. The remaining activity at 100 µM [11] was 70.7%, the remaining activity at 100 µM [12] was 5.7% and the remaining activity at 100 µM [13] was 0.9%. It also gave a remaining activity at 100 µM [14] of 14.7%, a remaining activity at 100 µM [15] of 14.4% and a ΔTm at 10 µM ([16]; Rep1, read-out: + Tm shift NFU1, Rep1) of 1.3 °C. It also gave a ΔTm at 10 µM ([16]; Rep2, read-out: + Tm shift NFU1, Rep2) of 1.2 °C, a ΔTm at 10 µM ([17]; Rep1, read-out: + Tm shift RABEP1, Rep1) of 3.5 °C and a ΔTm at 10 µM ([17]; Rep2, read-out: + Tm shift RABEP1, Rep2) of 4.4 °C. For the same compound, the ΔTm at 10 µM ([18]; Rep1, read-out: + Tm shift PSMG4, Rep1) was 3.4 °C, the ΔTm at 10 µM ([18]; Rep2, read-out: + Tm shift PSMG4, Rep2) was 3.5 °C and the ΔTm at 10 µM ([19]; Rep1, read-out: + Tm shift CSTF2T, Rep1) was 1.3 °C. For the same compound, the ΔTm at 10 µM ([19]; Rep2, read-out: + Tm shift CSTF2T, Rep2) was 1.8 °C, the ΔTm at 10 µM ([20]; Rep1, read-out: + Tm shift TNS1, Rep1) was 1.1 °C and the ΔTm at 10 µM ([20]; Rep2, read-out: + Tm shift TNS1, Rep2) was 1.6 °C. For the same compound, the ΔTm at 10 µM ([21]; Rep1, read-out: + Tm shift FBX21, Rep1) was 3.2 °C and the ΔTm at 10 µM ([21]; Rep2, read-out: + Tm shift FBX21, Rep2) was 2.3 °C.
